In patent US20110280898A1, “INHBB EPITOPE PEPTIDES AND VACCINES CONTAINING THE SAME” (Oncotherapy Science, Inc., priority 2008, published 2011):
“Also recorded” adds a separate entry of the source.

How the values were obtained:
peptide-pulsed T2 cells [1] = test: IFN-gamma ELISPOT assay on CTLs induced with INHBB-derived peptides; format: cell-based, human; conditions: target cells pulsed with the peptide vs control not pulsed, after 3rd round of stimulation, day 21
From the text: Monocyte-derived dendritic cells (DCs) were used as antigen-presenting cells (APCs) to induce cytotoxic T lymphocyte (CTL) responses against peptides presented on human leukocyte antigen (HLA). DCs were generated in vitro as described elsewhere (Nakahara S et al., Cancer Res 2003 Jul 15, 63(14): 4112-8). Specifically, peripheral blood mononuclear cells (PBMCs) isolated from a normal volunteer (HLA-A*0201 positive) by Ficoll-Plaque (Pharmacia) solution were separated by adherence to a plastic tissue culture dish (Becton Dickinson) so as to enrich them as the monocyte fraction. The monocyte-enriched population was cultured in the presence of 1000 U/ml of granulocyte-macrophage colony-stimulating factor (GM-CSF) (R&D System) and 1000 U/ml of interleukin (IL)-4 (R&D System) in AIM-V Medium (Invitrogen) containing 2% heat-inactivated autologous serum (AS). After 7 days of culture, the cytokine-induced DCs were pulsed with 20 mcg/ml of each of the synthesized peptides in the presence of 3 mcg/ml of beta2-microglobulin for 3 hr at 37 degrees C. in AIM-V Medium. The generated cells appeared to express DC-associated molecules, such as CD80, CD83, CD86 and HLA class II, on their cell surfaces (data not shown). These peptide-pulsed DCs were then inactivated by Mitomycin C (MMC) (30 mcg/ml for 30 min) and mixed at a 1:20 ratio with autologous CD8+ T cells, obtained by positive selection with CD8 Positive Isolation Kit (Dynal). These cultures were set up in 48-well plates (Corning); each well contained 1.5×10^4 peptide-pulsed DCs, 3×10^5 CD8+ T cells and 10 ng/ml of IL-7 (R&D System) in 0.5 ml of AIM-V/2% AS medium. Three days later, these cultures were supplemented with IL-2 (CHIRON) to a final concentration of 20 IU/ml. On day 7 and 14, the T cells were further stimulated with the autologous peptide-pulsed DCs. The DCs were prepared each time by the same way described above. CTL was tested against peptide-pulsed T2 cells after the 3rd round of peptide stimulation on day 21 (Tanaka H et al., Br J Cancer 2001 Jan. 5, 84(1): 94-9; Umano Y et al., Br J Cancer 2001 Apr. 20, 84(8): 1052-7; Uchida N et al., Clin Cancer Res 2004 Dec. 15, 10(24): 8577-86; Suda T et al., Cancer Sci 2006 May, 97(5): 411-9; Watanabe T et al., Cancer Sci 2005 Aug, 96(8): 498-506).
Specifically, peptide-pulsed T2 (1×10^4/well) was prepared as stimulator cells. Cultured cells in 48 wells were used as responder cells. IFN-gamma ELISPOT assay and IFN-gamma ELISA assay were performed under manufacture procedure.

peptide-pulsed T2 cells [2] = test: IFN-gamma ELISA assay on expanded CTL line; format: cell-based, human; conditions: CTL line expanded from positive well #7, peptide-pulsed target vs target without peptide pulse
From the text: Monocyte-derived dendritic cells (DCs) were used as antigen-presenting cells (APCs) to induce cytotoxic T lymphocyte (CTL) responses against peptides presented on human leukocyte antigen (HLA). DCs were generated in vitro as described elsewhere (Nakahara S et al., Cancer Res 2003 Jul 15, 63(14): 4112-8). Specifically, peripheral blood mononuclear cells (PBMCs) isolated from a normal volunteer (HLA-A*0201 positive) by Ficoll-Plaque (Pharmacia) solution were separated by adherence to a plastic tissue culture dish (Becton Dickinson) so as to enrich them as the monocyte fraction. The monocyte-enriched population was cultured in the presence of 1000 U/ml of granulocyte-macrophage colony-stimulating factor (GM-CSF) (R&D System) and 1000 U/ml of interleukin (IL)-4 (R&D System) in AIM-V Medium (Invitrogen) containing 2% heat-inactivated autologous serum (AS). After 7 days of culture, the cytokine-induced DCs were pulsed with 20 mcg/ml of each of the synthesized peptides in the presence of 3 mcg/ml of beta2-microglobulin for 3 hr at 37 degrees C. in AIM-V Medium. The generated cells appeared to express DC-associated molecules, such as CD80, CD83, CD86 and HLA class II, on their cell surfaces (data not shown). […]

Row | Substance | IFN-gamma production of peptide-induced CTLs (specific CTL activity) (peptide-pulsed T2 cells [1]) | IFN-gamma production / specific CTL activity of established CTL line (peptide-pulsed T2 cells [2]) | IFN-gamma production / specific CTL activity of established CTL line (peptide-pulsed T2 cells [2]; listed as SEQ ID NO: 2)
1 | INHBB-A02-9-8: 9-mer HLA-A*0201 binding epitope peptide derived from INHBB (ALGAACLLL) | potent IFN-gamma production as compared to the control; also recorded: potent IFN-gamma production as compared with the control | – | –
2 | INHBB-A02-9-139: 9-mer HLA-A*0201 binding epitope peptide derived from INHBB (RVSEIISFA) | potent IFN-gamma production as compared to the control; also recorded: potent IFN-gamma production as compared with the control | – | –
3 | INHBB-A02-9-174: 9-mer HLA-A*0201 binding epitope peptide derived from INHBB (VQASLWLYL) | potent IFN-gamma production as compared to the control; also recorded: potent IFN-gamma production as compared with the control | potent IFN-gamma production as compared with the control | higher specific CTL activity against the peptide-pulsed target as compared to the activity against target without peptide pulse
4 | INHBB-A02-9-213: 9-mer HLA-A*0201 binding epitope peptide derived from INHBB (NMVEKRVDL) | potent IFN-gamma production as compared to the control; also recorded: potent IFN-gamma production as compared with the control | – | –
5 | INHBB-A02-9-250: 9-mer HLA-A*0201 binding epitope peptide derived from INHBB (VQCDSCQEL) | potent IFN-gamma production as compared to the control; also recorded: potent IFN-gamma production as compared with the control | – | –
6 | INHBB-A02-9-257: 9-mer HLA-A*0201 binding epitope peptide derived from INHBB (ELAVVPVFV) | potent IFN-gamma production as compared to the control; also recorded: potent IFN-gamma production as compared with the control | – | –
7 | INHBB-A02-9-313: 9-mer HLA-A*0201 binding epitope peptide derived from INHBB (RLIGWNDWI) | potent IFN-gamma production as compared to the control; also recorded: potent IFN-gamma production as compared with the control | – | –
8 | INHBB-A02-10-85: 10-mer HLA-A*0201 binding epitope peptide derived from INHBB (RLQMRGRPNI) | potent IFN-gamma production as compared to the control; also recorded: potent IFN-gamma production as compared with the control | – | –
9 | INHBB-A02-10-162: 10-mer HLA-A*0201 binding epitope peptide derived from INHBB (FISNEGNQNL) | potent IFN-gamma production as compared to the control; also recorded: potent IFN-gamma production as compared with the control | – | –
10 | INHBB-A02-10-173: 10-mer HLA-A*0201 binding epitope peptide derived from INHBB (VVQASLWLYL) | potent IFN-gamma production as compared to the control; also recorded: potent IFN-gamma production as compared with the control | – | –
11 | INHBB-A02-10-179: 10-mer HLA-A*0201 binding epitope peptide derived from INHBB (WLYLKLLPYV) | potent IFN-gamma production as compared to the control; also recorded: potent IFN-gamma production as compared with the control | – | –
12 | INHBB-A02-10-237: 10-mer HLA-A*0201 binding epitope peptide derived from INHBB (ALFERGERRL) | potent IFN-gamma production as compared to the control; also recorded: potent IFN-gamma production as compared with the control | – | –
13 | INHBB-A02-10-256: 10-mer HLA-A*0201 binding epitope peptide derived from INHBB (QELAVVPVFV) | potent IFN-gamma production as compared to the control; also recorded: potent IFN-gamma production as compared with the control | – | –
14 | INHBB-A02-10-313: 10-mer HLA-A*0201 binding epitope peptide derived from INHBB (RLIGWNDWII) | potent IFN-gamma production as compared to the control; also recorded: potent IFN-gamma production as compared with the control | – | –
